Results reported in patent US11104648B2, “Pyrazole derivative” (Zhejiang Research Institute of Chemical Industry Co., Ltd., priority 2018, dated 2021).
Read-outs that look alike come from different tables or passages of the source.

How the values were obtained:
Type in all cases: in vivo
[1] = test system: Tetranychus cinnabarinus Nymphs; assay: Activity assay of Tetranychus cinnabarinus nymphs (spray on broad bean leaves)
Outline: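 Mortality, judged as no response to gentle touch, was scored 48 h after spraying Tetranychus cinnabarinus nymphs on broad bean leaves (eggs from females removed after 24 h). Test solutions: DMF-dissolved compound, ≤10% DMF, in 1‰ Tween 80; 26±2° C., 70%–80% RH, 16 h light; triplicate, blank control.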

[2] = test system: Eggs of Tetranychus Cinnabarinus; assay: Activity assay of eggs of Tetranychus cinnabarinus (spray method, ovicidal); conditions: Tetranychus cinnabarinus, read-out: ovicidal activity; for pest or weed control at 2 µg/mL: concentration 2 mg/L
Outline: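 Ovicidal spray test: compound dissolved in DMF, diluted with 1‰ Tween 80 (DMF ≤10%), sprayed on eggs laid during 24 h by females on broad bean leaves. Culture at 26±2° C, 70–80% RH, 16 h photoperiod; non-hatched eggs scored as dead when blank control hatched; three repeats.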

[3] = test system: adult Tetranychus cinnabarinus; assay: Activity assay of adult Tetranychus cinnabarinus (whole-plant spray on bean seedlings); conditions: 48 h, read-out: adult mite-killing activity; for pest or weed control at 1.25 µg/mL: concentration 1.25 mg/L
Outline: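 Whole plants sprayed after adult mite inoculation and initial census, using compound dissolved in DMF and made up with 1‰ Tween 80 water (DMF not above 10%). Mortality derived from survivor counts at 48 h after treatment. Each treatment run in triplicate.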

[4] = 48 h, concentration 2.5 mg/L, read-out: nymph-killing activity
[5] = concentration 5 mg/L, spray, non-incubated eggs counted as dead
[6] = 48 h, read-out: nymph-killing activity
[7] = concentration 2.5 mg/L, 48 h, read-out: nymph-killing activity
[8] = 48 h, concentration 2 mg/L, read-out: nymph-killing activity

Row | Structure (SMILES) | pest or weed control at 2.5 µg/mL [1, 4] [%] | pest or weed control at 5 µg/mL [2, 5] [%] | pest or weed control at 2.5 µg/mL ([3]; concentration 2.5 mg/L) [%] | other results
1 | CCn1nc(C)c(C)c1/C(OCOC(=O)C(C)(C)C)=C(\C#N)c1ccc(C(C)(C)C)cc1 [Compound 380] | ≥ 95 | ≥ 90 | ≥ 90 | 
2 | CCCCC(=O)OCO/C(=C(/C#N)c1ccc(C(C)(C)C)cc1)c1c(C)c(C)nn1CC [Compound 381] | ≥ 95 | ≥ 90 | ≥ 90 | 
3 | CCn1nc(C)c(C)c1/C(OCOC(=O)CC(C)C)=C(\C#N)c1ccc(C(C)(C)C)cc1 [Compound 382] | ≥ 95 | ≥ 90 | ≥ 90 | 
4 | CCn1nc(C)c(C)c1/C(OCOC(=O)COC)=C(\C#N)c1ccc(C(C)(C)C)cc1 [Compound 383] | ≥ 95 | ≥ 90 | ≥ 90 | 
5 | CCn1nc(C)c(C)c1/C(OCOC(=O)C1CC1)=C(\C#N)c1ccc(C(C)(C)C)cc1 [Compound 384] | ≥ 95 | ≥ 90 | ≥ 90 | 
6 | CCn1nc(C)c(C)c1/C(OCOC(=O)CSC)=C(\C#N)c1ccc(C(C)(C)C)cc1 [Compound 385] | ≥ 95 | ≥ 90 | ≥ 90 | 
7 | CCn1nc(C)c(C)c1/C(OCOC(=O)C1CCCCC1)=C(\C#N)c1ccc(C(C)(C)C)cc1 [Compound 386] | ≥ 95 | ≥ 90 | ≥ 90 | 
8 | CCn1nc(C)c(C)c1/C(OCOC(=O)CF)=C(\C#N)c1ccc(C(C)(C)C)cc1 [Compound 387] |  |  |  | pest or weed control at 2.5 µg/mL [1, 6]: ≥ 95%; pest or weed control at 5 µg/mL [2]: ≥ 90%; pest or weed control at 2.5 µg/mL [3]: ≥ 90%
9 | CCn1nc(C)c(C)c1/C(OCOC(=O)C(F)(F)F)=C(\C#N)c1ccc(C(C)(C)C)cc1 [Compound 388] | ≥ 95 | ≥ 90 | ≥ 90 | 
10 | CCn1nc(C)c(C)c1/C(OCOC(=O)c1ccccc1)=C(\C#N)c1ccc(C(C)(C)C)cc1 [Compound 389] | ≥ 95 | ≥ 90 | ≥ 90 | 
11 | CCn1nc(C)c(C)c1/C(OCOC(=O)Cc1ccccc1)=C(\C#N)c1ccc(C(C)(C)C)cc1 [Compound 390] |  | ≥ 90 | ≥ 90 | pest or weed control at 2.5 µg/mL [1, 7]: ≥ 95%
12 | CCn1nc(C)c(C)c1/C(OCOC(=O)C(C)(C)CC)=C(\C#N)c1ccc(C(C)(C)C)cc1 [Compound 391] | ≥ 95 | ≥ 90 | ≥ 90 | 
13 | C=CC(=O)OCO/C(=C(/C#N)c1ccc(C(C)(C)C)cc1)c1c(C)c(C)nn1CC [Compound 392] | ≥ 95 | ≥ 90 | ≥ 90 | 
14 | CCn1nc(C)c(C)c1/C(OC(C)OC(C)=O)=C(\C#N)c1ccc(C(C)(C)C)cc1 (stereo not drawn) [Compound 401] | ≥ 95 | ≥ 90 | ≥ 90 | pest or weed control at 2 µg/mL [1, 8]: ≥ 90%; pest or weed control at 2 µg/mL ([2]; spray): ≥ 90%; pest or weed control at 1.25 µg/mL [3]: ≥ 90%
15 | CCC(=O)OC(C)O/C(=C(/C#N)c1ccc(C(C)(C)C)cc1)c1c(C)c(C)nn1CC (stereo not drawn) [Compound 402] | ≥ 95 | ≥ 90 | ≥ 90 | pest or weed control at 2 µg/mL [1, 8]: ≥ 90%; pest or weed control at 2 µg/mL ([2]; spray): ≥ 90%; pest or weed control at 1.25 µg/mL [3]: ≥ 90%
16 | CCCC(=O)OC(C)O/C(=C(/C#N)c1ccc(C(C)(C)C)cc1)c1c(C)c(C)nn1CC (stereo not drawn) [Compound 403] | ≥ 95 | ≥ 90 | ≥ 90 | 
17 | CCn1nc(C)c(C)c1/C(OC(C)OC(=O)C(C)C)=C(\C#N)c1ccc(C(C)(C)C)cc1 (stereo not drawn) [Compound 404] | ≥ 95 | ≥ 90 | ≥ 90 | 
18 | CCn1nc(C)c(C)c1/C(OC(C)OC(=O)C(C)(C)C)=C(\C#N)c1ccc(C(C)(C)C)cc1 (stereo not drawn) [Compound 405] | ≥ 95 | ≥ 90 | ≥ 90 | pest or weed control at 2 µg/mL [1, 8]: ≥ 90%; pest or weed control at 2 µg/mL ([2]; spray): ≥ 90%; pest or weed control at 1.25 µg/mL [3]: ≥ 90%
19 | CCCCC(=O)OC(C)O/C(=C(/C#N)c1ccc(C(C)(C)C)cc1)c1c(C)c(C)nn1CC (stereo not drawn) [Compound 406] | ≥ 95 | ≥ 90 | ≥ 90 | 
20 | CCn1nc(C)c(C)c1/C(OC(C)OC(=O)CC(C)C)=C(\C#N)c1ccc(C(C)(C)C)cc1 (stereo not drawn) [Compound 407] | ≥ 95 | ≥ 90 | ≥ 90 | 

Row | Structure (SMILES) | pest or weed control at 2.5 µg/mL [1, 4] [%] | pest or weed control at 5 µg/mL [2, 5] [%] | pest or weed control at 2.5 µg/mL ([3]; concentration 2.5 mg/L) [%] | other results
21 | CCn1nc(C)c(C)c1/C(OC(C)OC(=O)COC)=C(\C#N)c1ccc(C(C)(C)C)cc1 (stereo not drawn) [Compound 408] | ≥ 95 | ≥ 90 | ≥ 90 | 
22 | CCn1nc(C)c(C)c1/C(OC(C)OC(=O)C1CC1)=C(\C#N)c1ccc(C(C)(C)C)cc1 (stereo not drawn) [Compound 409] | ≥ 95 | ≥ 90 | ≥ 90 | pest or weed control at 2 µg/mL [1, 8]: ≥ 90%; pest or weed control at 2 µg/mL ([2]; spray): ≥ 90%; pest or weed control at 1.25 µg/mL [3]: ≥ 90%
23 | CCn1nc(C)c(C)c1/C(OC(C)OC(=O)CSC)=C(\C#N)c1ccc(C(C)(C)C)cc1 (stereo not drawn) [Compound 410] | ≥ 95 | ≥ 90 | ≥ 90 | 
24 | CCn1nc(C)c(C)c1/C(OC(C)OC(=O)C1CCCCC1)=C(\C#N)c1ccc(C(C)(C)C)cc1 (stereo not drawn) [Compound 411] | ≥ 95 | ≥ 90 | ≥ 90 | 
25 | CCn1nc(C)c(C)c1/C(OC(C)OC(=O)CF)=C(\C#N)c1ccc(C(C)(C)C)cc1 (stereo not drawn) [Compound 412] |  |  |  | pest or weed control at 2.5 µg/mL [1, 6]: ≥ 95%; pest or weed control at 5 µg/mL [2]: ≥ 90%; pest or weed control at 2.5 µg/mL [3]: ≥ 90%
26 | CCn1nc(C)c(C)c1/C(OC(C)OC(=O)C(F)(F)F)=C(\C#N)c1ccc(C(C)(C)C)cc1 (stereo not drawn) [Compound 413] | ≥ 95 | ≥ 90 | ≥ 90 | 
27 | CCn1nc(C)c(C)c1/C(OC(C)OC(=O)c1ccccc1)=C(\C#N)c1ccc(C(C)(C)C)cc1 (stereo not drawn) [Compound 414] | ≥ 95 | ≥ 90 | ≥ 90 | 
28 | CCn1nc(C)c(C)c1/C(OC(C)OC(=O)Cc1ccccc1)=C(\C#N)c1ccc(C(C)(C)C)cc1 (stereo not drawn) [Compound 415] |  | ≥ 90 | ≥ 90 | pest or weed control at 2.5 µg/mL [1, 7]: ≥ 95%
29 | CCn1nc(C)c(C)c1/C(OC(C)OC(=O)C(C)(C)CC)=C(\C#N)c1ccc(C(C)(C)C)cc1 (stereo not drawn) [Compound 416] | ≥ 95 | ≥ 90 | ≥ 90 | 
30 | C=CC(=O)OC(C)O/C(=C(/C#N)c1ccc(C(C)(C)C)cc1)c1c(C)c(C)nn1CC (stereo not drawn) [Compound 417] | ≥ 95 | ≥ 90 | ≥ 90 | 
31 | COC(=O)OCO/C(=C(/C#N)c1ccc(C(C)(C)C)cc1)c1cc(C)nn1C [Compound 451] | ≥ 95 | ≥ 90 | ≥ 90 | 
32 | CCOC(=O)OCO/C(=C(/C#N)c1ccc(C(C)(C)C)cc1)c1cc(C)nn1C [Compound 452] | ≥ 95 | ≥ 90 | ≥ 90 | 
33 | Cc1cc(/C(OCOC(=O)OC(C)C)=C(\C#N)c2ccc(C(C)(C)C)cc2)n(C)n1 [Compound 454] | ≥ 95 | ≥ 90 | ≥ 90 | 
34 | CCCCOC(=O)OCO/C(=C(/C#N)c1ccc(C(C)(C)C)cc1)c1cc(C)nn1C [Compound 456] | ≥ 95 | ≥ 90 | ≥ 90 | 
35 | Cc1cc(/C(OCOC(=O)OCC(C)C)=C(\C#N)c2ccc(C(C)(C)C)cc2)n(C)n1 [Compound 457] | ≥ 95 | ≥ 90 | ≥ 90 | 
36 | Cc1cc(/C(OCOC(=O)OCCC(C)C)=C(\C#N)c2ccc(C(C)(C)C)cc2)n(C)n1 [Compound 458] | ≥ 95 | ≥ 90 | ≥ 90 | 
37 | CCCCCOC(=O)OCO/C(=C(/C#N)c1ccc(C(C)(C)C)cc1)c1cc(C)nn1C [Compound 460] | ≥ 95 | ≥ 90 | ≥ 90 | 
38 | Cc1cc(/C(OCOC(=O)OCC(F)(F)F)=C(\C#N)c2ccc(C(C)(C)C)cc2)n(C)n1 [Compound 467] | ≥ 95 | ≥ 90 | ≥ 90 | 
39 | COCCOC(=O)OCO/C(=C(/C#N)c1ccc(C(C)(C)C)cc1)c1cc(C)nn1C [Compound 468] | ≥ 95 | ≥ 90 | ≥ 90 | 
40 | CSCCOC(=O)OCO/C(=C(/C#N)c1ccc(C(C)(C)C)cc1)c1cc(C)nn1C [Compound 471] | ≥ 95 | ≥ 90 | ≥ 90 | 
